These results are taken from PubChem BioAssay (NCI).

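Following 48 hours of exposure in 96-well plates, responses at five concentrations were used to interpolate endpoints linearly. Abbreviation: GI50, concentration required for 50% inhibition of growth. At the TGI there is no net growth.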

Among the test systems are SF-539 CNS; HCT-15 colon; CAKI-1 renal; UACC-257 melanoma; HOP-62 NSCLC; HT29 colon; MCF7 breast; IGROV1 ovarian; OVCAR-8 ovarian; SN12C renal.
Common to all, as to test: DTP human tumour cell line panel, 48 h

On to `Cn1c(/C(C#N)=C/c2ccc3ccccc3c2)cc2ccccc21`, for which the GI50 (in general, the concentration that inhibits growth by half) with SF-539 CNS was 0.101 µM; in the assay on HCT-15 colon it was 0.0934 µM; in the assay with CAKI-1 renal, 0.0605 µM; in the assay on UACC-257 melanoma it was over 100 µM; in the assay on HOP-62 NSCLC, 0.357 µM; with HT29 colon, 0.353 µM. The concentration for 50% growth inhibition (GI50) with MCF7 breast is 0.0946 µM; in the assay with IGROV1 ovarian, 0.225 µM; in the assay with OVCAR-8 ovarian, 0.421 µM; in the assay with SN12C renal, 0.389 µM. The TGI (commonly the concentration giving total growth inhibition) in the assay on SF-539 CNS is 0.941 µM; in the assay with HCT-15 colon it was over 100 µM; in the assay on CAKI-1 renal, over 100 µM; in the assay on UACC-257 melanoma, over 100 µM; with HOP-62 NSCLC, over 100 µM; with HT29 colon it was over 100 µM. The TGI in the assay on MCF7 breast, with IGROV1 ovarian, in the assay on OVCAR-8 ovarian and in the assay on SN12C renal was over 100 µM each time.

For the compound `C=CCO/N=C/c1cc(NC(=S)c2ccoc2C)ccc1Cl`, the total growth inhibition concentration (TGI) in the assay with SF-539 CNS came out at 44.6 µM; with HCT-15 colon, 23.8 µM; in the assay with CAKI-1 renal, 23.6 µM; with UACC-257 melanoma, 34 µM; in the assay with HOP-62 NSCLC, 29.5 µM; with HT29 colon, 26.2 µM. The TGI in the assay with MCF7 breast was 23.3 µM; in the assay on IGROV1 ovarian it was 32.2 µM; in the assay on OVCAR-8 ovarian it was 33.9 µM; in the assay on SN12C renal, 30.3 µM.

As for `CCC(=C(c1ccc(OCCCN(C)C)cc1)c1ccc(OCCCN(C)C)cc1)c1ccc(Cl)cc1`, the GI50 in the assay with SF-539 CNS is 0.301 µM; in the assay with HCT-15 colon, 0.365 µM; in the assay with CAKI-1 renal, 0.56 µM; in the assay on UACC-257 melanoma it was 0.883 µM; in the assay on HOP-62 NSCLC, 2.31 µM; with HT29 colon it was 0.395 µM. The 50% growth inhibitory concentration (GI50) in the assay with MCF7 breast was 0.216 µM; in the assay on IGROV1 ovarian, 0.429 µM; with OVCAR-8 ovarian it was 0.933 µM; with SN12C renal, 2.18 µM. The TGI is 0.604 µM with SF-539 CNS; 0.864 µM in the assay on HCT-15 colon; 2.19 µM in the assay with CAKI-1 renal; 2.24 µM in the assay with UACC-257 melanoma; 5.1 µM in the assay with HOP-62 NSCLC; 0.966 µM with HT29 colon. For the same compound, the TGI in the assay with MCF7 breast came to 0.524 µM; with IGROV1 ovarian, 1.15 µM; with OVCAR-8 ovarian, 3.37 µM; with SN12C renal, 4.55 µM.

For `CCCCCCCCCCCCCCCCCCNC(=O)[C@H]1CSC(c2cccs2)N1` (some centres not stated), the GI50 in the assay with SF-539 CNS is 1.71 µM; in the assay with HCT-15 colon, 2.08 µM; in the assay on CAKI-1 renal, 1.03 µM; with UACC-257 melanoma, 1.25 µM; in the assay on HOP-62 NSCLC, 0.959 µM; with HT29 colon, 1.46 µM. Besides, the GI50 with MCF7 breast is 0.764 µM; in the assay on OVCAR-8 ovarian, 1.31 µM; in the assay on SN12C renal, 0.885 µM. The TGI in the assay on SF-539 CNS was 7.85 µM; in the assay on HCT-15 colon, over 50 µM; with CAKI-1 renal, 2.09 µM; with UACC-257 melanoma it was 3.12 µM; in the assay with HOP-62 NSCLC, 1.71 µM; in the assay with HT29 colon it was 4.2 µM. The results for the TGI with MCF7 breast, with OVCAR-8 ovarian and in the assay with SN12C renal were 1.58 µM, 3.34 µM and 1.76 µM, respectively.

As to `O=C1C(Cl)=C(Nc2ccccc2)C(=O)c2ccccc21`, the GI50 with SF-539 CNS was 5.41 µM; with HCT-15 colon it was 1.26 µM; in the assay on CAKI-1 renal, 1.73 µM; in the assay on UACC-257 melanoma, 1.83 µM; with HOP-62 NSCLC, 12.8 µM; in the assay on HT29 colon it was 2.27 µM. Moreover, the GI50 in the assay with MCF7 breast is 1.5 µM; in the assay with IGROV1 ovarian it was 1.75 µM; in the assay on OVCAR-8 ovarian, 1.71 µM; in the assay on SN12C renal it was 1.82 µM. Besides, the TGI is 17.5 µM with SF-539 CNS; 2.92 µM in the assay on HCT-15 colon; 3.13 µM in the assay on CAKI-1 renal; 3.3 µM in the assay on UACC-257 melanoma; 26.8 µM with HOP-62 NSCLC; 4.72 µM in the assay on HT29 colon. The TGI with MCF7 breast came to 3.53 µM; with IGROV1 ovarian, 3.27 µM; in the assay on OVCAR-8 ovarian it was 3.2 µM; with SN12C renal, 3.59 µM.

In the case of `c1ccc2nc3c(cc4ccccn43)nc2c1`, the GI50 was 36.7 µM in the assay with SF-539 CNS; 73.4 µM in the assay on HCT-15 colon; 55.2 µM with CAKI-1 renal; over 100 µM in the assay on UACC-257 melanoma; 18.9 µM with HOP-62 NSCLC; over 100 µM in the assay with HT29 colon. Also, the GI50 with MCF7 breast is over 100 µM; in the assay on IGROV1 ovarian it was 1.81 µM; in the assay with OVCAR-8 ovarian, 34.8 µM; in the assay with SN12C renal, 70 µM. Further, the TGI in the assay on SF-539 CNS was over 100 µM; in the assay on HCT-15 colon, over 100 µM; in the assay with CAKI-1 renal it was over 100 µM; in the assay on UACC-257 melanoma, over 100 µM; with HOP-62 NSCLC it was 74.1 µM; with HT29 colon, over 100 µM. Further, the concentration for total growth inhibition (TGI) with MCF7 breast was over 100 µM; in the assay on IGROV1 ovarian, 26.1 µM; with OVCAR-8 ovarian, over 100 µM; in the assay with SN12C renal it was over 100 µM.

On to `OC(c1ccc(Br)cc1)(c1cccs1)C1CC1` (configuration not stated), for which the TGI was 45.9 µM with SF-539 CNS; 65.7 µM in the assay with HCT-15 colon; 69.6 µM in the assay with CAKI-1 renal; 71.3 µM in the assay with UACC-257 melanoma; 47.2 µM with HOP-62 NSCLC; 68 µM in the assay on HT29 colon. Further, the TGI in the assay with MCF7 breast turned out to be 72.6 µM; with IGROV1 ovarian it was 42.9 µM; with OVCAR-8 ovarian, 54.1 µM.
